According to patent publication US20220202739A1, “ENDOCANNABINOID MIMETIC AND ANTI-INFLAMMATORY COMPOUND CONTAINING COMPOSITIONS, METHODS OF PREPARATION AND USES THEREOF” (priority 2019, published 2022):
Read-outs that look alike come from different tables or passages of the source.

What was measured:
Type in all cases: cell-based
PPARG = assay: Gene expression custom microarray, human skin fibroblasts (Example 1): PPARG; settings: for fold induction at 10 µM: Skin fibroblast, read-out: PPARG↑ gene expression, fold increase or decrease vs untreated cells
Source text: (§1) Cell cultures: A human skin fibroblast cell culture (or cultures) was obtained through the Coriell Cell Repository from the National Institute on Aging Cell Repository (Camden, N.J.), or Promocell GmbH (Heidelberg, Germany). The initial culture was selected from the following cell lines: AG13066, AG11557, AG11796 or GM03651E. The cell lines were derived from donors as follows:
(§2) Experimental phase: When the appropriate quantity of cells had been grown, they were detached as described above, but at the final step were seeded into each well of one or more 6 well dishes. Each well received 2 ml of the cell suspension so they were seeded equally. The dishes were returned to the incubator until 85-95% confluency was reached.
(§3) It is at this stage that all wells were rinsed in PBS after aspirating the growth media. The compound(s) to be tested were previously mixed into a suitable solvent (e.g., DMSO or ethanol) that can be diluted to the desired concentration of test compound (10 μl) in the culture wells without exceeding maximum solvent concentrations and adversely effecting cell viability, and mixed with basal media. NOTE: Standard maximum levels of solvent are 0.1% for DMSO and 0.5% for ETOH.
(§4) Every 2 wells on the 6 well plate served as a biological replicate for the purposes of RNA isolation and genetic expression evaluations making each 6 well dish an n=3 for the test compound(s) contained in the media. Negative control plates (no test compound(s) and only basal media) were also generated. The plates were returned to the incubator for 24 hrs.
(§5) At the end of the 24 hr time period, the plates were removed from the incubator, the test media aspirated, and the cells rinsed with PBS. RNA isolation is performed using the BioRad Aurum Total RNA Mini Kit (Hercules, Calif.) per manufacturer's protocol; which is described, in brief, below: • Add 350 μl of lysis buffer to each well. Pipet multiple times to ensure thorough lysis. Add lysed cells to the collection tube. • Add 350 μl of 70% ETOH to the collection tube and mix thoroughly. • Pipet the generated lysate onto the spin column placed in a new 2 ml tube. Centrifuge for 30 sec between 8,000 and 10,000 g. • Place the spin column containing the now bound RNA, in a new 2 ml tube. Add 700 μl of low stringency wash solution to the spin column. Centrifuge for 30 sec between 8,000 and 10,000 g. Discard the flow through and replace spin column. • Add 80 μl of DNase I dilution to the spin column and incubate at room temperature for 15 minutes. • Add 700 μl of high stringency wash solution to the column and centrifuge for 30 sec between 8,000 and 10,000 g. Discard flow through. • Add 700 μl of low stringency wash solution to the column and centrifuge for 60 sec between 8,000 and 10,000 g. Discard flow through. • Centrifuge for 2 minutes to remove residual wash solution. • Transfer spin column to new 1.5 ml collection tube and add 80 μl of elution solution to the column. Allow 1 minute for saturation of the membrane and then centrifuge for 2 minutes to complete the RNA elution. • Quantify the quantity of RNA and store at −20 C° until use (no more than 1 month)
(§6) The genes tested were: • Cannabinoid receptor 1 (CB1(CNR1)) • Cannabinoid receptor 2 (CB2 (CNR2)) • Fatty acid amide hydrolase (FAAH) • Monoacylglycerol lipase (MGLL, i.e., MAGL) • Peroxisome proliferator-activated receptor gamma (PPARG) • Nuclear factor kappa-light-chain-enhancer of activated B cells (NFκβ) • Interleukin 1 Alpha (IL1alpha) • Cyclooxygenase 1 (PTGS1, i.e., COX1) • Transient receptor potential cation channel subfamily A member 1 (TRPA1) • Transient receptor potential cation channel subfamily V member 1 (TRPV1) • Transient receptor potential cation channel subfamily M member 8 (TRPM8) • Hemoglobin Subunit Beta (HBB) REFERENCE GENE • Ribosomal Protein L13a (RPL13A) REFERENCE GENE

NFKB1 = assay: Gene expression custom microarray, human skin fibroblasts (Example 1): NFKB1; settings: for fold induction at 10 µM: Skin fibroblast, read-out: NFKB1↓ gene expression, fold increase or decrease vs untreated cells
Source text: as §1, §2, §3, §4, §5, §6

MAGL = assay: Gene expression custom microarray, human skin fibroblasts (Example 1): MAGL; settings: for fold induction at 10 µM: Skin fibroblast, read-out: MAGL↓ gene expression, fold increase or decrease vs untreated cells
Source text: as §1, §2
as §3, with “ETOH. The concentration of each test compound is found in Tables 1 & 2.” for “ETOH.”
as §4, §5
(§7) The genes tested were: • Cannabinoid receptor 1 (CB1(CNR1)) • Cannabinoid receptor 2 (CB2 (CNR2)) • Fatty acid amide hydrolase (FAAH) • Monoacylglycerol lipase (MGLL, i.e., MAGL) • Peroxisome proliferator-activated receptor gamma (PPARG) • Nuclear factor kappa-light-chain-enhancer of activated B cells (NFκβ) • Interleukin 1 Alpha (IL1alpha) • Cyclooxygenase 1 (PTGS1, i.e., COX1) • Transient receptor potential cation channel subfamily A member 1 (TRPA1) • Transient receptor potential cation channel subfamily V member 1 (TRPV1) • Transient receptor potential cation channel subfamily M member 8 (TRPM8) • Hemoglobin Subunit Beta (HBB) REFERENCE GENE • Ribosomal Protein L13a (RPL13A) REFERENCE GENE […]

PTGS1 = assay: Gene expression custom microarray, human skin fibroblasts (Example 1): PTGS1; settings: for fold induction at 10 µM: Skin fibroblast, read-out: PTGS1↓ gene expression, fold increase or decrease vs untreated cells
Source text: as §1, §2
as §3, with “ETOH. The concentration of each test compound is found in Tables 1 & 2.” for “ETOH.”
as §4, §5, §7

FAAH = assay: Gene expression custom microarray, human skin fibroblasts (Example 1): FAAH; settings: for fold induction at 10 µM: Skin fibroblast, read-out: FAAH↓ gene expression, fold increase or decrease vs untreated cells
Source text: as §1, §2
as §3, with “ETOH. The concentration of each test compound is found in Tables 1 & 2.” for “ETOH.”
as §4, §5, §7

TRPM8 = assay: Gene expression custom microarray, human skin fibroblasts (Example 1): TRPM8; settings: 24 hr; for fold induction at 10 µM: Skin fibroblast, read-out: TRPM8↑ gene expression, fold increase or decrease vs untreated cells
Source text: as §1, §2
as §3, with “ETOH. The concentration of each test compound is found in Tables 1 & 2.” for “ETOH.”
as §4, §5, §7

TRPA1 = assay: Gene expression custom microarray, human skin fibroblasts (Example 1): TRPA1; settings: human skin fibroblasts, 10 uM, 24 hr; for fold induction at 10 µM: Skin fibroblast, read-out: TRPA1↑ gene expression, fold increase or decrease vs untreated cells
Source text: as §1, §2
as §3, with “ETOH. The concentration of each test compound is found in Tables 1 & 2.” for “ETOH.”
as §4, §5, §7

CNR1 = assay: Gene expression custom microarray, human skin fibroblasts (Example 1): CNR1; settings: for fold induction at 10 µM: Skin fibroblast, read-out: CNR1↑ gene expression, fold increase or decrease vs untreated cells
Source text: as §1, §2
as §3, with “ETOH. The concentration of each test compound is found in Tables 1 & 2.” for “ETOH.”
as §4, §5, §7

IL1A = assay: Gene expression custom microarray, human skin fibroblasts (Example 1): IL1A; settings: 24 hr; for fold induction at 10 µM: Skin fibroblast, read-out: IL1A↓ gene expression, fold increase or decrease vs untreated cells
Source text: as §1, §2
as §3, with “ETOH. The concentration of each test compound is found in Tables 1 & 2.” for “ETOH.”
as §4, §5, §7

CNR2 = assay: Gene expression custom microarray, human skin fibroblasts (Example 1): CNR2; settings: human skin fibroblasts, 10 uM, 24 hr; for fold induction at 10 µM: Skin fibroblast, read-out: CNR2↑ gene expression, fold increase or decrease vs untreated cells
Source text: as §1, §2
as §3, with “ETOH. The concentration of each test compound is found in Tables 1 & 2.” for “ETOH.”
as §4, §5, §7

TRPV1 = assay: Gene expression custom microarray, human skin fibroblasts (Example 1): TRPV1; settings: 10 uM, 24 hr
Source text: as §1, §2
as §3, with “ETOH. The concentration of each test compound is found in Tables 1 & 2.” for “ETOH.”
as §4
At the end of the 24 hr time period, the plates were removed from the incubator, the test media aspirated, and the cells rinsed with PBS. RNA isolation is performed using the BioRad Aurum Total RNA Mini Kit (Hercules, Calif.) per manufacturer's protocol; which is described, in brief, below: • Add 350 μl of lysis buffer to each well. Pipet multiple times to ensure thorough lysis. Add lysed cells to the collection tube. • Add 350 μl of 70% ETOH to the collection tube and mix thoroughly. • Pipet the generated lysate onto the spin column placed in a new 2 ml tube. Centrifuge for 30 sec between 8,000 and 10,000 g. • Place the spin column containing the now bound RNA, in a new 2 ml tube. Add 700 μl of low stringency wash solution to the spin column. Centrifuge for 30 sec between 8,000 and 10,000 g. […] Allow 1 minute for saturation of the membrane and then centrifuge for 2 minutes to complete the RNA elution. • Quantify the quantity of RNA and store at −20 C° until use (no more than 1 month) […]

[1] = human skin fibroblasts, 10 uM, 24 hr

SMILES	fold induction at 10 µM (PPARG; [1])	fold induction at 10 µM (TRPM8)	fold induction at 10 µM (NFKB1; [1])	fold induction at 10 µM (MAGL; [1])	fold induction at 10 µM (TRPA1)	fold induction at 10 µM (IL1A)	fold induction at 10 µM (PTGS1; [1])	fold induction at 10 µM (FAAH; [1])	fold induction at 10 µM (CNR2)	also measured
O=c1cc(-c2ccccc2)oc2cc(O)ccc12 [7-Hydroxyflavone]	–	–	–	–	–	–	–	–	–	fold induction at 10 µM (PPARG; Homo sapiens, 24 h): 1.4; fold induction at 10 µM (NFKB1; Homo sapiens, 24 h): 1.1; fold induction at 10 µM (MAGL; Homo sapiens, 24 h): 2; fold induction at 10 µM (PTGS1; Homo sapiens, 24 h): 1.4; fold induction at 10 µM (FAAH; Homo sapiens, 24 h): 1.2
C=CCc1ccc(O)c(-c2ccc(O)c(CC=C)c2)c1 [Honokiol]	2.3	1.8	1.6	2.7	1.4	1.8	1.5	2.3	1.3	fold induction at 10 µM (CNR1; Homo sapiens, 24 h): 1.2
CC1CCC(C(C)C)C(O)C1 (stereo not drawn) [Menthol, reference compound]	1.8	–	3.4	2.7	2.5	–	7.8	2	–	–
COc1cc(/C=C/C(=O)CC(=O)/C=C/c2ccc(O)c(OC)c2)ccc1O [Curcumin]	–	47.9	1.1	–	4.9	4.9	–	1.8	55.4	fold induction at 10 µM (CNR1; [1]): 47.4
C[C@@H]1C(=O)O[C@H]2[C@H](O)[C@@]34[C@H]5C[C@@H](C(C)(C)C)[C@]36[C@@H](OC(=O)[C@@H]6O)O[C@@]4(C(=O)O5)[C@@]12O [Ginkolide, Ginkolide B]	–	–	–	–	–	–	–	–	–	PPARG↑ gene expression, fold increase or decrease vs untreated cells (PPARG; [1]): −1.3 fold; TRPM8↑ gene expression, fold increase or decrease vs untreated cells (TRPM8; 10 uM): 2.1 fold; NFKB1↓ gene expression, fold increase or decrease vs untreated cells (NFKB1; [1]): −1.2 fold; TRPV1↑ gene expression, fold increase or decrease vs untreated cells (TRPV1): −2.6 fold; MAGL↓ gene expression, fold increase or decrease vs untreated cells (MAGL; [1]): 2.3 fold; TRPA1↑ gene expression, fold increase or decrease vs untreated cells (TRPA1): 1.1 fold; CNR1↑ gene expression, fold increase or decrease vs untreated cells (CNR1; [1]): 1.1 fold; IL1A↓ gene expression, fold increase or decrease vs untreated cells (IL1A; 10 uM): −3.3 fold; PTGS1↓ gene expression, fold increase or decrease vs untreated cells (PTGS1; [1]): −1.3 fold; FAAH↓ gene expression, fold increase or decrease vs untreated cells (FAAH; [1]): −1.1 fold; CNR2↑ gene expression, fold increase or decrease vs untreated cells (CNR2): −1.2 fold
